Values of other authors, collected in PubChem BioAssay AID1259409 (Chemical Carcinogenesis Research Information System (CCRIS), 2018).

System: rodent chemically induced tumor inhibition, incidence and multiplicity
Assay: CCRIS tumor inhibitor studies
Settings: Route [Inhibitor]: ORAL, Promoter: NONE USED

## ClC(Cl)Cl
Carcinogen: 1,2-DIMETHYLHYDRAZINE DIHYDROCHLORIDE, 306-37-6, Dose [Inhibitor]: 900 MG/L IN DRINKING WATER BEGINNING 7 D POST CARCINOGEN DOSE AND CONTINUING FOR 39 WK (STUDY DURATION: 39 WK), Species: RAT, Strain/Sex: F344/MALE, Target Tissue: Type of Lesion: GASTROINTESTINAL TRACT: TUMOR, Dose [Carcinogen]: 200 MG/KG ONCE
  tumour outcome (control, treated, inhibition, significance): 14/39 (36%), 5/39 (13%), 64%, not calculated
Carcinogen: 1,2-DIMETHYLHYDRAZINE DIHYDROCHLORIDE, 306-37-6, Dose [Inhibitor]: 1800 MG/L IN DRINKING WATER BEGINNING 7 D POST CARCINOGEN DOSE AND CONTINUING FOR 39 WK (STUDY DURATION: 39 WK), Species: RAT, Strain/Sex: F344/MALE, Target Tissue: Type of Lesion: GASTROINTESTINAL TRACT: TUMOR, Dose [Carcinogen]: 200 MG/KG ONCE
  tumour outcome (control, treated, inhibition, significance): 14/39 (36%), 5/40 (13%), 64%, not calculated
Carcinogen: ETHYLNITROSOUREA, 759-73-9, Dose [Inhibitor]: 0, 1800 PPM IN DRINKING WATER BEGINNING AT 5 WK OF AGE AND CONTINUING TO 51 WK OF AGE (STUDY DURATION: 52 WK), Species: MOUSE, Strain/Sex: CD-1/FEMALE, Target Tissue: Type of Lesion: LUNG: ADENOMA, Dose [Carcinogen]: 5 MG/KG ONCE AT 15 D OF AGE
  tumour outcome (control, treated, inhibition, significance): 10/36 (28%), 7/38 (18%), 36%, not calculated
Carcinogen: ETHYLNITROSOUREA, 759-73-9, Dose [Inhibitor]: 0, 1800 PPM IN DRINKING WATER BEGINNING AT 5 WK OF AGE AND CONTINUING TO 51 WK OF AGE (STUDY DURATION: 52 WK), Species: MOUSE, Strain/Sex: CD-1/FEMALE, Target Tissue: Type of Lesion: LUNG: ADENOMA, Dose [Carcinogen]: 20 MG/KG ONCE AT 15 D OF AGE
  tumour outcome (control, treated, inhibition, significance): 25/39 (64%), 23/45 (51%), 20%, not calculated
Carcinogen: ETHYLNITROSOUREA, 759-73-9, Dose [Inhibitor]: 0, 1800 PPM IN DRINKING WATER BEGINNING AT 5 WK OF AGE AND CONTINUING TO 51 WK OF AGE (STUDY DURATION: 52 WK), Species: MOUSE, Strain/Sex: CD-1/FEMALE, Target Tissue: Type of Lesion: LUNG: CARCINOMA, Dose [Carcinogen]: 5 MG/KG ONCE AT 15 D OF AGE
  tumour outcome (control, treated, inhibition, significance): 1/36 (3%), 2/38 (5%), -67%, not calculated
Carcinogen: ETHYLNITROSOUREA, 759-73-9, Dose [Inhibitor]: 0, 1800 PPM IN DRINKING WATER BEGINNING AT 5 WK OF AGE AND CONTINUING TO 51 WK OF AGE (STUDY DURATION: 52 WK), Species: MOUSE, Strain/Sex: CD-1/FEMALE, Target Tissue: Type of Lesion: LUNG: CARCINOMA, Dose [Carcinogen]: 20 MG/KG ONCE AT 15 D OF AGE
  tumour outcome (control, treated, inhibition, significance): 2/39 (5%), 5/45 (11%), -120%, not calculated
Carcinogen: ETHYLNITROSOUREA, 759-73-9, Dose [Inhibitor]: 0, 1800 PPM IN DRINKING WATER BEGINNING AT 5 WK OF AGE AND CONTINUING TO 51 WK OF AGE (STUDY DURATION: 52 WK), Species: MOUSE, Strain/Sex: CD-1/MALE, Target Tissue: Type of Lesion: LIVER: ADENOMA, Dose [Carcinogen]: 5 MG/KG ONCE AT 15 D OF AGE
  tumour outcome (control, treated, inhibition, significance): 8/39 (21%), 1/25 (4%), 81%, p<0.05
Carcinogen: ETHYLNITROSOUREA, 759-73-9, Dose [Inhibitor]: 0, 1800 PPM IN DRINKING WATER BEGINNING AT 5 WK OF AGE AND CONTINUING TO 51 WK OF AGE (STUDY DURATION: 52 WK), Species: MOUSE, Strain/Sex: CD-1/MALE, Target Tissue: Type of Lesion: LIVER: ADENOMA, Dose [Carcinogen]: 20 MG/KG ONCE AT 15 D OF AGE
  tumour outcome (control, treated, inhibition, significance): 22/30 (73%), 12/29 (41%), 44%, p<0.05
Carcinogen: ETHYLNITROSOUREA, 759-73-9, Dose [Inhibitor]: 0, 1800 PPM IN DRINKING WATER BEGINNING AT 5 WK OF AGE AND CONTINUING TO 51 WK OF AGE (STUDY DURATION: 52 WK), Species: MOUSE, Strain/Sex: CD-1/MALE, Target Tissue: Type of Lesion: LIVER: CARCINOMA, Dose [Carcinogen]: 5 MG/KG ONCE AT 15 D OF AGE
  tumour outcome (control, treated, inhibition, significance): 2/39 (5%), 0/25 (0%), 100%, not calculated
Carcinogen: ETHYLNITROSOUREA, 759-73-9, Dose [Inhibitor]: 0, 1800 PPM IN DRINKING WATER BEGINNING AT 5 WK OF AGE AND CONTINUING TO 51 WK OF AGE (STUDY DURATION: 52 WK), Species: MOUSE, Strain/Sex: CD-1/MALE, Target Tissue: Type of Lesion: LIVER: CARCINOMA, Dose [Carcinogen]: 20 MG/KG ONCE AT 15 D OF AGE
  tumour outcome (control, treated, inhibition, significance): 10/30 (33%), 5/29 (17%), 48%, p<0.1
Carcinogen: ETHYLNITROSOUREA, 759-73-9, Dose [Inhibitor]: 0, 1800 PPM IN DRINKING WATER BEGINNING AT 5 WK OF AGE AND CONTINUING TO 51 WK OF AGE (STUDY DURATION: 52 WK), Species: MOUSE, Strain/Sex: CD-1/MALE, Target Tissue: Type of Lesion: LUNG: ADENOMA, Dose [Carcinogen]: 5 MG/KG ONCE AT 15 D OF AGE
  tumour outcome (control, treated, inhibition, significance): 11/39 (29%), 10/25 (40%), -38%, not calculated
Carcinogen: ETHYLNITROSOUREA, 759-73-9, Dose [Inhibitor]: 0, 1800 PPM IN DRINKING WATER BEGINNING AT 5 WK OF AGE AND CONTINUING TO 51 WK OF AGE (STUDY DURATION: 52 WK), Species: MOUSE, Strain/Sex: CD-1/MALE, Target Tissue: Type of Lesion: LUNG: ADENOMA, Dose [Carcinogen]: 20 MG/KG ONCE AT 15 D OF AGE
  tumour outcome (control, treated, inhibition, significance): 15/30 (50%), 12/29 (41%), 18%, not calculated
Carcinogen: ETHYLNITROSOUREA, 759-73-9, Dose [Inhibitor]: 0, 1800 PPM IN DRINKING WATER BEGINNING AT 5 WK OF AGE AND CONTINUING TO 51 WK OF AGE (STUDY DURATION: 52 WK), Species: MOUSE, Strain/Sex: CD-1/MALE, Target Tissue: Type of Lesion: LUNG: CARCINOMA, Dose [Carcinogen]: 5 MG/KG ONCE AT 15 D OF AGE
  tumour outcome (control, treated, inhibition, significance): 1/39 (3%), 1/25 (4%), -33%, not calculated
Carcinogen: ETHYLNITROSOUREA, 759-73-9, Dose [Inhibitor]: 0, 1800 PPM IN DRINKING WATER BEGINNING AT 5 WK OF AGE AND CONTINUING TO 51 WK OF AGE (STUDY DURATION: 52 WK), Species: MOUSE, Strain/Sex: CD-1/MALE, Target Tissue: Type of Lesion: LUNG: CARCINOMA, Dose [Carcinogen]: 20 MG/KG ONCE AT 15 D OF AGE
  tumour outcome (control, treated, inhibition, significance): 2/30 (7%), 4/29 (14%), -100%, not calculated
